What was measured:
Homo sapiens [1] = species on record: Homo sapiens; experiment: Selectivity for p38alpha MAP kinase (unknown origin) over NEK2 (unknown origin)
Homo sapiens [2] = species on record: Homo sapiens; experiment: Selectivity for p38alpha MAP kinase (unknown origin) over PKC-beta1 (unknown origin)
Homo sapiens [3] = species on record: Homo sapiens; experiment: Selectivity for p38alpha MAP kinase (unknown origin) over ROCK2 (unknown origin)
Homo sapiens [4] = species on record: Homo sapiens; experiment: Selectivity for p38alpha MAP kinase (unknown origin) over wild type FLT3 (unknown origin)
Homo sapiens [5] = species on record: Homo sapiens; experiment: Selectivity for p38alpha MAP kinase (unknown origin) over SRMS (unknown origin)
Homo sapiens [6] = species on record: Homo sapiens; experiment: Selectivity for p38alpha MAP kinase (unknown origin) over JAK3 (unknown origin)
Homo sapiens [7] = species on record: Homo sapiens; experiment: Selectivity for p38alpha MAP kinase (unknown origin) over PAK2 (unknown origin)
Homo sapiens [8] = species on record: Homo sapiens; experiment: Selectivity for p38alpha MAP kinase (unknown origin) over MET F1200I mutant (unknown origin)
Homo sapiens [9] = species on record: Homo sapiens; experiment: Selectivity for p38alpha MAP kinase (unknown origin) over SNK (unknown origin)
Homo sapiens [10] = species on record: Homo sapiens; experiment: Selectivity for p38alpha MAP kinase (unknown origin) over MEK1 (unknown origin)
Homo sapiens [11] = species on record: Homo sapiens; experiment: Selectivity for p38alpha MAP kinase (unknown origin) over VEGF-R3 (unknown origin)
Homo sapiens [12] = species on record: Homo sapiens; experiment: Selectivity for p38alpha MAP kinase (unknown origin) over CLK1 (unknown origin)
Homo sapiens [13] = species on record: Homo sapiens; experiment: Selectivity for p38alpha MAP kinase (unknown origin) over BMPR1A (unknown origin)
Homo sapiens [14] = species on record: Homo sapiens; experiment: Selectivity for p38alpha MAP kinase (unknown origin) over PDGFR-beta (unknown origin)
Homo sapiens [15] = species on record: Homo sapiens; experiment: Selectivity for p38alpha MAP kinase (unknown origin) over FGR (unknown origin)
Homo sapiens [16] = species on record: Homo sapiens; experiment: Selectivity for p38alpha MAP kinase (unknown origin) over EPHB1 (unknown origin)
Homo sapiens [17] = species on record: Homo sapiens; experiment: Selectivity for p38alpha MAP kinase (unknown origin) over ERBB4 (unknown origin)
Homo sapiens [18] = species on record: Homo sapiens; experiment: Selectivity for p38alpha MAP kinase (unknown origin) over ASK1 (unknown origin)
Homo sapiens [19] = species on record: Homo sapiens; experiment: Selectivity for p38alpha MAP kinase (unknown origin) over GRK4 (unknown origin)
Homo sapiens [20] = species on record: Homo sapiens; experiment: Selectivity for p38alpha MAP kinase (unknown origin) over CDC42BPB (unknown origin)
Homo sapiens [21] = species on record: Homo sapiens; experiment: Selectivity for p38alpha MAP kinase (unknown origin) over EPHB4 (unknown origin)
Homo sapiens [22] = species on record: Homo sapiens; experiment: Selectivity for p38alpha MAP kinase (unknown origin) over AXL (unknown origin)
Homo sapiens [23] = species on record: Homo sapiens; experiment: Selectivity for p38alpha MAP kinase (unknown origin) over ROS (unknown origin)
Homo sapiens [24] = species on record: Homo sapiens; experiment: Selectivity for p38alpha MAP kinase (unknown origin) over CDK1/CycB1 (unknown origin)
Homo sapiens [25] = species on record: Homo sapiens; experiment: Selectivity for p38alpha MAP kinase (unknown origin) over LCK (unknown origin)
Homo sapiens [26] = species on record: Homo sapiens; experiment: Selectivity for p38alpha MAP kinase (unknown origin) over FLT3 ITD (unknown origin)
Homo sapiens [27] = species on record: Homo sapiens; experiment: Selectivity for p38alpha MAP kinase (unknown origin) over RIPK2 (unknown origin)
Homo sapiens [28] = species on record: Homo sapiens; experiment: Selectivity for p38alpha MAP kinase (unknown origin) over PCTAIRE1 (unknown origin)
Homo sapiens [29] = species on record: Homo sapiens; experiment: Selectivity for p38alpha MAP kinase (unknown origin) over STK25 (unknown origin)
Homo sapiens [30] = species on record: Homo sapiens; experiment: Selectivity for p38alpha MAP kinase (unknown origin) over ROCK1 (unknown origin)
Homo sapiens [31] = species on record: Homo sapiens; experiment: Selectivity for p38alpha MAP kinase (unknown origin) over WNK2 (unknown origin)
Homo sapiens [32] = species on record: Homo sapiens; experiment: Selectivity for p38alpha MAP kinase (unknown origin) over TTK (unknown origin)
Homo sapiens [33] = species on record: Homo sapiens; experiment: Selectivity for p38alpha MAP kinase (unknown origin) over Aurora-B (unknown origin)
Homo sapiens [34] = species on record: Homo sapiens; experiment: Selectivity for p38alpha MAP kinase (unknown origin) over PYK2 (unknown origin)
[35] = target: Mitogen-activated protein kinase 14 (Homo sapiens, UniProt Q16539); experiment: Competitive inhibition of p38alpha MAP kinase (unknown origin) in presence of 100 uM ATP
Homo sapiens [36] = species on record: Homo sapiens; experiment: Selectivity for p38alpha MAP kinase (unknown origin) over PAK1 (unknown origin)
Homo sapiens [37] = species on record: Homo sapiens; experiment: Selectivity for p38alpha MAP kinase (unknown origin) over ZAK (unknown origin)
Homo sapiens [38] = species on record: Homo sapiens; experiment: Selectivity for p38alpha MAP kinase (unknown origin) over IGF1-R (unknown origin)
Homo sapiens [39] = species on record: Homo sapiens; experiment: Selectivity for p38alpha MAP kinase (unknown origin) over ABL1 Q252H mutant (unknown origin)
Homo sapiens [40] = species on record: Homo sapiens; experiment: Selectivity for p38alpha MAP kinase (unknown origin) over INS-R (unknown origin)
Homo sapiens [41] = species on record: Homo sapiens; experiment: Selectivity for p38alpha MAP kinase (unknown origin) over PKC-zeta (unknown origin)
Homo sapiens [42] = species on record: Homo sapiens; experiment: Selectivity for p38alpha MAP kinase (unknown origin) over STK23 (unknown origin)
Homo sapiens [43] = species on record: Homo sapiens; experiment: Selectivity for p38alpha MAP kinase (unknown origin) over PDGFR-alpha D842V mutant (unknown origin)
Homo sapiens [44] = species on record: Homo sapiens; experiment: Selectivity for p38alpha MAP kinase (unknown origin) over EGFR 747 to 752 deletion/P753S mutant (unknown origin)
Homo sapiens [45] = species on record: Homo sapiens; experiment: Selectivity for p38alpha MAP kinase (unknown origin) over ABL1 E255K mutant (unknown origin)
Homo sapiens [46] = species on record: Homo sapiens; experiment: Selectivity for p38alpha MAP kinase (unknown origin) over EGFR G719S mutant (unknown origin)
Homo sapiens [47] = species on record: Homo sapiens; experiment: Selectivity for p38alpha MAP kinase (unknown origin) over EGFR T790M mutant (unknown origin)
Homo sapiens [48] = species on record: Homo sapiens; experiment: Selectivity for p38alpha MAP kinase (unknown origin) over FLT3 D835Y mutant (unknown origin)
Homo sapiens [49] = species on record: Homo sapiens; experiment: Selectivity for p38alpha MAP kinase (unknown origin) over RPS6KA5 (unknown origin)
Homo sapiens [50] = species on record: Homo sapiens; experiment: Selectivity for p38alpha MAP kinase (unknown origin) over BTK (unknown origin)
Homo sapiens [51] = species on record: Homo sapiens; experiment: Selectivity for p38alpha MAP kinase (unknown origin) over VEGF-R1 (unknown origin)
Homo sapiens [52] = species on record: Homo sapiens; experiment: Selectivity for p38alpha MAP kinase (unknown origin) over PDGFR-alpha V561D mutant (unknown origin)
Homo sapiens [53] = species on record: Homo sapiens; experiment: Selectivity for p38alpha MAP kinase (unknown origin) over DYRK1B (unknown origin)
Homo sapiens [54] = species on record: Homo sapiens; experiment: Selectivity for p38alpha MAP kinase (unknown origin) over PKC-beta2 (unknown origin)
Homo sapiens [55] = species on record: Homo sapiens; experiment: Selectivity for p38alpha MAP kinase (unknown origin) over TEC (unknown origin)
Homo sapiens [56] = species on record: Homo sapiens; experiment: Selectivity for p38alpha MAP kinase (unknown origin) over GRK7 (unknown origin)
Homo sapiens [57] = species on record: Homo sapiens; experiment: Selectivity for p38alpha MAP kinase (unknown origin) over RPS6KA1 (unknown origin)
Homo sapiens [58] = species on record: Homo sapiens; experiment: Selectivity for p38alpha MAP kinase (unknown origin) over ACK1 (unknown origin)
Homo sapiens [59] = species on record: Homo sapiens; experiment: Selectivity for p38alpha MAP kinase (unknown origin) over NEK4 (unknown origin)
Homo sapiens [60] = species on record: Homo sapiens; experiment: Selectivity for p38alpha MAP kinase (unknown origin) over SRPK1 (unknown origin)
Homo sapiens [61] = species on record: Homo sapiens; experiment: Selectivity for p38alpha MAP kinase (unknown origin) over IKK-alpha (unknown origin)
Homo sapiens [62] = species on record: Homo sapiens; experiment: Selectivity for p38alpha MAP kinase (unknown origin) over PKC-iota (unknown origin)
Homo sapiens [63] = species on record: Homo sapiens; experiment: Selectivity for p38alpha MAP kinase (unknown origin) over HCK (unknown origin)

Sequence of Mitogen-activated protein kinase 14 (Q16539 whole entry): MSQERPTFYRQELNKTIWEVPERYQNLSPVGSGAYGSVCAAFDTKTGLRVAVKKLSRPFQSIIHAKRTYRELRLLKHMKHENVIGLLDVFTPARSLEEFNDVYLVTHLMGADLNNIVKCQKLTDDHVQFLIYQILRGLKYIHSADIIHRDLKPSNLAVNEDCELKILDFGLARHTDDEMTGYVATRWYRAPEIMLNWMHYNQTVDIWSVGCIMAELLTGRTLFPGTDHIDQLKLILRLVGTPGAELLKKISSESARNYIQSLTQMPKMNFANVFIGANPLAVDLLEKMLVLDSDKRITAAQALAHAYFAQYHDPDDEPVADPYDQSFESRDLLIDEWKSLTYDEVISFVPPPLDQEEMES

How did the Selectivity ratio (Homo sapiens [1]) turn out when Cc1cc(F)c(NC(=O)c2ccsc2)cc1Nc1ccc2c(c1)OCc1ccc(OC[C@H](O)CO)cc1C2=O was run?
Its Selectivity ratio is > 1000.

What about the Selectivity ratio (Homo sapiens [2]) of the same molecule?
The Selectivity ratio was > 1000.

And the Selectivity ratio (Homo sapiens [3])?
Its Selectivity ratio is > 1000.

And the Selectivity ratio (Homo sapiens [4])?
Its Selectivity ratio is > 1000.

What about the Selectivity ratio (Homo sapiens [5]) of the same molecule?
The Selectivity ratio was > 1000.

What about the Selectivity ratio (Homo sapiens [6]) of the same molecule?
Its Selectivity ratio is > 1000.

And the Selectivity ratio (Homo sapiens [7])?
Its Selectivity ratio is > 1000.

And the Selectivity ratio (Homo sapiens [8])?
The Selectivity ratio was > 1000.

What about the Selectivity ratio (Homo sapiens [9]) of the same molecule?
The Selectivity ratio was > 1000.

What about the Selectivity ratio (Homo sapiens [10]) of the same molecule?
Its Selectivity ratio is > 1000.

What about the Selectivity ratio (Homo sapiens [11]) of the same molecule?
Its Selectivity ratio is > 1000.

And the Selectivity ratio (Homo sapiens [12])?
The Selectivity ratio was > 1000.

What about the Selectivity ratio (Homo sapiens [13]) of the same molecule?
Its Selectivity ratio is > 1000.

And the Selectivity ratio (Homo sapiens [14])?
Its Selectivity ratio is > 1000.

And the Selectivity ratio (Homo sapiens [15])?
Its Selectivity ratio is > 1000.

And the Selectivity ratio (Homo sapiens [16])?
The Selectivity ratio was > 1000.

What about the Selectivity ratio (Homo sapiens [17]) of the same molecule?
Its Selectivity ratio is > 1000.

What about the Selectivity ratio (Homo sapiens [18]) of the same molecule?
Its Selectivity ratio is > 1000.

And the Selectivity ratio (Homo sapiens [19])?
The Selectivity ratio was > 1000.

What about the Selectivity ratio (Homo sapiens [20]) of the same molecule?
The Selectivity ratio was > 1000.

What about the Selectivity ratio (Homo sapiens [21]) of the same molecule?
Its Selectivity ratio is > 1000.

What about the Selectivity ratio (Homo sapiens [22]) of the same molecule?
The Selectivity ratio was > 1000.

What about the Selectivity ratio (Homo sapiens [23]) of the same molecule?
The Selectivity ratio was > 1000.

What about the Selectivity ratio (Homo sapiens [24]) of the same molecule?
The Selectivity ratio was > 1000.

What about the Selectivity ratio (Homo sapiens [25]) of the same molecule?
The Selectivity ratio was > 1000.

What about the Selectivity ratio (Homo sapiens [26]) of the same molecule?
The Selectivity ratio was > 1000.

What about the Selectivity ratio (Homo sapiens [27]) of the same molecule?
Its Selectivity ratio is > 1000.

What about the Selectivity ratio (Homo sapiens [28]) of the same molecule?
The Selectivity ratio was > 1000.

And the Selectivity ratio (Homo sapiens [29])?
Its Selectivity ratio is > 1000.

What about the Selectivity ratio (Homo sapiens [30]) of the same molecule?
Its Selectivity ratio is > 1000.

And the Selectivity ratio (Homo sapiens [31])?
The Selectivity ratio was > 1000.

What about the Selectivity ratio (Homo sapiens [32]) of the same molecule?
The Selectivity ratio was > 1000.

And the Selectivity ratio (Homo sapiens [33])?
The Selectivity ratio was > 1000.

What about the Selectivity ratio (Homo sapiens [34]) of the same molecule?
The Selectivity ratio was > 1000.

What about the IC50 [35] of the same molecule?
The IC50 was 1.6 nM.

And the Selectivity ratio (Homo sapiens [36])?
The Selectivity ratio was > 1000.

And the Selectivity ratio (Homo sapiens [37])?
Its Selectivity ratio is > 1000.

And the Selectivity ratio (Homo sapiens [38])?
Its Selectivity ratio is > 1000.

What about the Selectivity ratio (Homo sapiens [39]) of the same molecule?
Its Selectivity ratio is > 1000.

And the Selectivity ratio (Homo sapiens [40])?
Its Selectivity ratio is > 1000.

And the Selectivity ratio (Homo sapiens [41])?
Its Selectivity ratio is > 1000.

What about the Selectivity ratio (Homo sapiens [42]) of the same molecule?
The Selectivity ratio was > 1000.

What about the Selectivity ratio (Homo sapiens [43]) of the same molecule?
Its Selectivity ratio is > 1000.

What about the Selectivity ratio (Homo sapiens [44]) of the same molecule?
Its Selectivity ratio is > 1000.

What about the Selectivity ratio (Homo sapiens [45]) of the same molecule?
The Selectivity ratio was > 1000.

And the Selectivity ratio (Homo sapiens [46])?
The Selectivity ratio was > 1000.

And the Selectivity ratio (Homo sapiens [47])?
Its Selectivity ratio is > 1000.

What about the Selectivity ratio (Homo sapiens [48]) of the same molecule?
Its Selectivity ratio is > 1000.

And the Selectivity ratio (Homo sapiens [49])?
Its Selectivity ratio is > 1000.

What about the Selectivity ratio (Homo sapiens [50]) of the same molecule?
The Selectivity ratio was > 1000.

And the Selectivity ratio (Homo sapiens [51])?
The Selectivity ratio was > 1000.

And the Selectivity ratio (Homo sapiens [52])?
Its Selectivity ratio is > 1000.

What about the Selectivity ratio (Homo sapiens [53]) of the same molecule?
The Selectivity ratio was > 1000.

What about the Selectivity ratio (Homo sapiens [54]) of the same molecule?
Its Selectivity ratio is > 1000.

What about the Selectivity ratio (Homo sapiens [55]) of the same molecule?
Its Selectivity ratio is > 1000.

And the Selectivity ratio (Homo sapiens [56])?
Its Selectivity ratio is > 1000.

And the Selectivity ratio (Homo sapiens [57])?
Its Selectivity ratio is > 1000.

And the Selectivity ratio (Homo sapiens [58])?
Its Selectivity ratio is > 1000.

What about the Selectivity ratio (Homo sapiens [59]) of the same molecule?
Its Selectivity ratio is > 1000.

What about the Selectivity ratio (Homo sapiens [60]) of the same molecule?
Its Selectivity ratio is > 1000.

What about the Selectivity ratio (Homo sapiens [61]) of the same molecule?
Its Selectivity ratio is > 1000.

What about the Selectivity ratio (Homo sapiens [62]) of the same molecule?
Its Selectivity ratio is > 1000.

What about the Selectivity ratio (Homo sapiens [63]) of the same molecule?
Its Selectivity ratio is > 1000.
